“Also recorded” adds a separate entry of the source.
Key:
[1] = CT time series of CSF tracer transport to the cochlea after intracisternal infusion; assay type: in vivo, mouse
Method: During the CM cannulation procedure a custom-made head bar was fixed on the top of the animal skull. The head bar was designed to minimize undesired movements during the image acquisition (Yoshida et al., 2016), and fixed to an animal holder. […] Animal's respiration was monitored by using Biovet software. CT scans were performed with the Vector4CT system (MILabs, Utrecht, Netherlands) and scanning of the entire mouse head was performed in 4.56 min at an isotropic spatial resolution of 20 μm. The time series CT scanning protocol comprised one baseline scan (4.5 min) followed by intracisternal infusion of Omnipaque (350 mg I/ml, 1 μL/min, 10 μL, GE healthcare). Scans continued over 6 measurements (30 min) after intracisternal infusion of Omnipaque.
The time-intensity data was extracted using ITK snap with the ROIs described above after background subtraction and then normalized to maximal cisterna magna intensity. Dimensions of cochlear aqueduct were measured using the #X feature in ITK snap for #four animals. Distances between ROIs were calculated using their spatial coordinates.
To solve the equation (#ref), inventors implemented a simple finite difference scheme in Python (#ref) using NumPy and Scipy (#ref). Estimation of the dispersion coefficient was achieved by minimizing the L2-norm prediction error, using Scipy (#ref) E: […]

[2] = mouse, in vivo
Method: Briefly, mice were anesthetized with a mixture of Ketamine/Xylazine (100 mg/kg, 10 mg/kg, respectively), after depth of anesthesia was confirmed by the cessation of reflexes, the incision area was properly shaved and sterilized with the aid of ethanol 70% swabs (Vitrex Medical A/S Herlev, DK), followed by iodine solution (Povidone Iodine 7,5% Henry Schein, Melville, NY, USA) applicated using cotton swabs. Before the onset of surgery, analgesics were applied, Lidocaine (0.05 ml, 0.2 mg/ml) was applied in the incision site and Buprenorphine (0.05 mg/kg) injected subcutaneously for post-surgical analgesia. After performing the skin incision around the occipital crest, the neck muscles were separated to reveal the CM underneath. […]
Immediately after the CM cannulation procedure, animals were moved to MRI scanner and head movement during scanning was minimized by restraining the animals on an MR-compatible stereotactic holder with ear bars. Body temperature was maintained at 37±0.5° C. with a thermostatically controlled waterbed and monitored, along with the respiratory rate by an MR compatible remote monitoring system (SA Instruments, NY, USA). […] Every 3D-CISS image was calculated as a maximum intensity projection from 4 realigned 3D-TrueFISP volumes with 4 orthogonal phase encoding directions (TR/TE 3.9/1.95 ms, Nex 2, FA 50°, FOV 19.2×12.8×12.8 mm, Matrix 192×128×128, BW 150 kHz). […]
Both DCE-MRI and CT time series data were motion corrected using Advanced Normalization Tools (ANTs ver.2.1.0) (Avants et al., 2008; Avants et al., 2011). Motion corrected time series in MRI images were converted into percent change from baseline-time series, calculated as the percent signal change from the averaged signal of baseline images.

Compound	Tracer concentration in scala vestibuli or cochlear nerve ([1]; during the 30 min of scanning)	Tracer distribution to scala tympani ([1]; intracisternal delivery, continuous CT scanning)	Time activity curves for tracer influx in mice lacking aqp4 [2]	Time to reach 50 max [2]	Tracer distribution to cochlea [2]
CC(=O)N(CC(O)CO)c1c(I)c(C(=O)NCC(O)CO)c(I)c(C(=O)NCC(O)CO)c1I (centres unmarked) [Omnipaque]	No clear rise; also recorded: no significant tracer arrives	reaches the base and middle region of the scala tympani			
O=C([O-])CN1CCN(CC(=O)[O-])CCN([C@H](CO)[C@H](O)CO)CCN(CC(=O)[O-])CC1.[Gd+3] (racemic) [Gadovist, gadobutrol]			did not differ from wild type animals	significantly higher in the cochlea	reaches the cochlea
